Assay results from patent US20110039762A1, “TARGETED ANTIMICROBIAL MOIETIES” (C3 JIAN, INC., priority 2009, published 2011).
“Also recorded” adds a separate entry of the source. Ends that are not written are not given here.

Legend:
S. epidermidis [1] = assay type: cell-based, Staphylococcus epidermidis; details: S. epidermidis
Description: (§1) Typically, the in vitro antimicrobial activity of antimicrobial agents is tested using standard NCCLS bacterial inhibition assays, or MIC tests (see, National Committee on Clinical Laboratory Standards “Performance Standards for Antimicrobial Susceptibility Testing,” NCCLS Document M100-S5 Vol. 14, No. 16, December 1994; “Methods for dilution antimicrobial susceptibility test for bacteria that grow aerobically-Third Edition,” Approved Standard M7-A3, National Committee for Clinical Standards, Villanova, Pa.).
(§2) Briefly, ˜1×10^5 cfu/mL bacteria were diluted in TH (S. mutans), or Mueller-Hinton (MH) broth (all other organisms) and distributed to 96-well plates. Serially-diluted (2-fold) peptides were then added and the plates incubated at 37° C. for 18-24 h. […] All experiments were conducted 10 times.

S. epidermidis [2] = test: Kill or inhibit growth/proliferation; morphology, biofilm and growth disruption (Tables 5, 6); assay type: cell-based, Staphylococcus epidermidis; parameters: key: A: Peptide aggregates; B: Less hyphal formation; Clumps; Diffuse clumps and small polyps; F: Diffuse growth; H: Thin; I: Growth inhibition; Microcolony formation; Rippled; Small polyps; Thick; W: Halo formation on top, microlonies on bottom; also: test concentration or dose not given here
[3] = system: microorganisms (e.g., bacteria, yeasts, fungi); test: Targeting peptide binding to target microorganisms (Table 3); details: preferably 1x PBS; for Target(s): microorganism(s) the targeting peptide binds; for Target(s) (microorganisms bound by the targeting peptide): peptide binding in aqueous buffers varied by peptide solubility
microorganisms = test: Peptides having multiple activities (targeting/binding, antimicrobial, growth or phenotype altering)
From the text: In certain embodiments, peptides described herein can have multiple activities. Thus for example, a peptide can have both binding/targeting activity and antimicrobial activity. Such peptides can be used, e.g., in a chimeric construct, for any or all of these properties. Thus, for example, a peptide designated “B” in Table 8 can be used as a targeting peptide. If it is also designated G or M it can also be used for antimicrobial activity.

B. subtilis [4] = test: MIC (broth microdilution); assay type: cell-based, Bacillus subtilis
Description: as §1, §2

B. subtilis [5] = test: Kill or inhibit growth/proliferation; morphology, biofilm and growth disruption (Tables 5, 6); assay type: cell-based, Bacillus subtilis; parameters: key: A: Peptide aggregates; B: Less hyphal formation; Clumps; Diffuse clumps and small polyps; F: Diffuse growth; H: Thin; I: Growth inhibition; Microcolony formation; Rippled; Small polyps; Thick; W: Halo formation on top, microlonies on bottom; also: test concentration or dose not given here
T. rubrum = test: MIC (broth microdilution); assay type: cell-based, Trichophyton rubrum
Description: as §1, §2

E. coli = test: Kill or inhibit growth/proliferation; morphology, biofilm and growth disruption (Tables 5, 6); assay type: cell-based, Escherichia coli; parameters: key: A: Peptide aggregates; B: Less hyphal formation; Clumps; Diffuse clumps and small polyps; F: Diffuse growth; H: Thin; I: Growth inhibition; Microcolony formation; Rippled; Small polyps; Thick; W: Halo formation on top, microlonies on bottom; also: test concentration or dose not given here
S. pneumoniae = test: as above; assay type: cell-based, Streptococcus pneumoniae; parameters: key: A: Peptide aggregates; B: Less hyphal formation; Clumps; Diffuse clumps and small polyps; F: Diffuse growth; H: Thin; I: Growth inhibition; Microcolony formation; Rippled; Small polyps; Thick; W: Halo formation on top, microlonies on bottom; also: test concentration or dose not given here
S. mutans [6] = test: as above; assay type: cell-based, Streptococcus mutans; parameters: key: A: Peptide aggregates; B: Less hyphal formation; Clumps; Diffuse clumps and small polyps; F: Diffuse growth; H: Thin; I: Growth inhibition; Microcolony formation; Rippled; Small polyps; Thick; W: Halo formation on top, microlonies on bottom
M. luteus = test: as above; assay type: cell-based, Micrococcus luteus; parameters: key: A: Peptide aggregates; B: Less hyphal formation; Clumps; Diffuse clumps and small polyps; F: Diffuse growth; H: Thin; I: Growth inhibition; Microcolony formation; Rippled; Small polyps; Thick; W: Halo formation on top, microlonies on bottom
P. mirabilis = test: as above; assay type: cell-based; parameters: key: A: Peptide aggregates; B: Less hyphal formation; Clumps; Diffuse clumps and small polyps; F: Diffuse growth; H: Thin; I: Growth inhibition; Microcolony formation; Rippled; Small polyps; Thick; W: Halo formation on top, microlonies on bottom; also: test concentration or dose not given here
MRSA [7] = test: as above; assay type: cell-based, Methicillin-resistant Staphylococcus aureus; parameters: key: A: Peptide aggregates; B: Less hyphal formation; Clumps; Diffuse clumps and small polyps; F: Diffuse growth; H: Thin; I: Growth inhibition; Microcolony formation; Rippled; Small polyps; Thick; W: Halo formation on top, microlonies on bottom
P. gingivalis = test: as above; assay type: cell-based, Porphyromonas gingivalis; parameters: key: A: Peptide aggregates; B: Less hyphal formation; Clumps; Diffuse clumps and small polyps; F: Diffuse growth; H: Thin; I: Growth inhibition; Microcolony formation; Rippled; Small polyps; Thick; W: Halo formation on top, microlonies on bottom; also: test concentration or dose not given here
F. nucleatum = test: as above; assay type: cell-based, Fusobacterium nucleatum; parameters: key: A: Peptide aggregates; B: Less hyphal formation; Clumps; Diffuse clumps and small polyps; F: Diffuse growth; H: Thin; I: Growth inhibition; Microcolony formation; Rippled; Small polyps; Thick; W: Halo formation on top, microlonies on bottom
A. niger = test: MIC (broth microdilution); assay type: cell-based, Aspergillus niger
Description: as §1, §2

MRSA [8] = test: MIC (broth microdilution); assay type: cell-based, Methicillin-resistant Staphylococcus aureus
Description: as §1, §2

P. aeruginosa = test: Kill or inhibit growth/proliferation; morphology, biofilm and growth disruption (Tables 5, 6); assay type: cell-based, Pseudomonas aeruginosa; parameters: key: A: Peptide aggregates; B: Less hyphal formation; Clumps; Diffuse clumps and small polyps; F: Diffuse growth; H: Thin; I: Growth inhibition; Microcolony formation; Rippled; Small polyps; Thick; W: Halo formation on top, microlonies on bottom; also: test concentration or dose not given here
E. faecalis = test: as above; assay type: cell-based, Enterococcus faecalis; parameters: key: A: Peptide aggregates; B: Less hyphal formation; Clumps; Diffuse clumps and small polyps; F: Diffuse growth; H: Thin; I: Growth inhibition; Microcolony formation; Rippled; Small polyps; Thick; W: Halo formation on top, microlonies on bottom; also: test concentration or dose not given here
S. mutans [9] = assay type: cell-based, Streptococcus mutans; details: S. mutans
Description: as §1, §2

[10] = binding in aqueous buffers depending on peptide solubility
For Organism, effect (morphology, biofilm and growth disruption) in this document: test concentration or dose not given here.
For Organism, effect in this document: test concentration or dose not given here.

Row | Substance | Organism, effect (S. epidermidis [2]) | Activities (microorganisms) | Organism, effect (E. coli) | Organism, effect (S. pneumoniae) | Organism, effect (S. mutans [6]) | Organism, effect (M. luteus) | Organism, effect (P. mirabilis) | Organism, effect (MRSA [7]) | Organism, effect (morphology, biofilm and growth disruption) (S. mutans [6]) | further results
1 | MIRIRSPTKKKLNRNSISDWKSNTSGRFFY [PF-283] | S. epidermidis (H) | G B M |  |  |  |  |  |  |  | MIC (S. epidermidis [1]): S. epidermidis, 50 μM; Target(s) [3, 10]: B. subtilis; also recorded: B. fragilis; also recorded: C. difficile; MIC (B. subtilis [4]): B. subtilis, 50 μM; Organism, effect (B. subtilis [5]): B. subtilis (H); MIC (T. rubrum): T. rubrum, 50 μM
2 | PF-578: peptide having multiple activities (chain 1 QKANLRIGFTYTSDSNVCNLTFALLGSK; chain 2 QKANLRIGFTYTSDSNVCNLTFALLGSK; Peptide with targeting and/or antimicrobial activity) | S. epidermidis (D) | G B | E. coli (C) | S. pneumoniae (D) | S. mutans (D) | M. luteus (C) | P. mirabilis (C) | MRSA (C) |  | 
3 | PF-612: peptide having multiple activities (GTTLKYGLERQLKIDIHPEITIINLNGGADEFAKL; Peptide with targeting and/or antimicrobial activity) | S. epidermidis (C) | G B | E. coli (C) | S. pneumoniae (C) | S. mutans (F) | M. luteus (A) | P. mirabilis (C) | MRSA (C) |  | 
4 | PF-624 (VFLLDSYCFVKINL; Peptide with targeting and/or antimicrobial activity) | S. epidermidis (D) |  | E. coli (C) | S. pneumoniae (D) | S. mutans (D) | M. luteus (C) | P. mirabilis (C) | MRSA (C) |  | 
5 | PF-634: peptide having multiple activities (chain 1 MPKARPVNHNKKKSKITIKSNFTLFYMFNP; chain 2 MPKARPVNHNKKKSKITIKSNFTLFYMFNP; Peptide with targeting and/or antimicrobial activity) | S. epidermidis (D) | G B | E. coli (C) | S. pneumoniae (D) | S. mutans (D) | M. luteus (C) | P. mirabilis (C) | MRSA (D) |  | 
6 | PF-770: peptide having multiple activities (GVGIGFIMMGVVGYAVKLVHIPIRYLIV; Peptide with targeting and/or antimicrobial activity) |  | G B |  |  |  |  |  |  | S. mutans (D) | Organism, effect (morphology, biofilm and growth disruption) (E. coli): E. coli (C); Organism, effect (morphology, biofilm and growth disruption) (S. epidermidis [2]): S. epidermidis (D); Organism, effect (morphology, biofilm and growth disruption) (S. pneumoniae): S. pneumoniae (C); Organism, effect (morphology, biofilm and growth disruption) (M. luteus): M. luteus (C); Organism, effect (morphology, biofilm and growth disruption) (P. mirabilis): P. mirabilis (C); Organism, effect (morphology, biofilm and growth disruption) (MRSA [7]): MRSA (D)
7 | PF-C075: peptide having multiple activities (KALVISVFAIVFSIIFVKFFYWRDKK; Peptide with targeting and/or antimicrobial activity) |  | G B |  |  |  |  |  |  | S. mutans (F) | Organism, effect (morphology, biofilm and growth disruption) (P. gingivalis): P. gingivalis (R); Target(s) (microorganisms bound by the targeting peptide) [3]: A. naeslundii; also recorded: F. nucleatum; also recorded: P. gingivalis; also recorded: S. mutans; also recorded: T. denticola; Organism, effect (morphology, biofilm and growth disruption) (F. nucleatum): F. nucleatum (T)
8 | PF-C084: peptide having multiple activities (FFSVIFLFGLNYLICNSPLFNILR; Peptide with targeting and/or antimicrobial activity) |  | G B |  |  |  |  |  |  | S. mutans (F) | Organism, effect (morphology, biofilm and growth disruption) (P. gingivalis): P. gingivalis (R); Target(s) (microorganisms bound by the targeting peptide) [3]: A. naeslundii; also recorded: F. nucleatum; also recorded: P. gingivalis; also recorded: S. mutans; Organism, effect (morphology, biofilm and growth disruption) (F. nucleatum): F. nucleatum (T)
9 | PF-C088: peptide having multiple activities (DIANNILNSVSERLIIA; Peptide with targeting and/or antimicrobial activity) |  | G B |  |  |  |  |  |  | S. mutans (I) | Organism, effect (morphology, biofilm and growth disruption) (P. gingivalis): P. gingivalis (R); Target(s) (microorganisms bound by the targeting peptide) [3]: A. naeslundii; also recorded: F. nucleatum; also recorded: P. gingivalis; also recorded: S. mutans; also recorded: T. denticola; Organism, effect (morphology, biofilm and growth disruption) (F. nucleatum): F. nucleatum (H)
10 | VLPFPAIPLSRRRACVAAPRPRSRQRAS [PF-168] |  | G B M |  |  |  |  |  | MRSA (I) |  | MIC (A. niger): A. niger, 50 μM; MIC (MRSA [8]): MRSA , 50 μM; Target(s) [3, 10]: S. epidermidis and M. luteus and E. coli and C. albicans and MRSA and C. jeikeium and C. jejuni; MIC (T. rubrum): T. rubrum, 50 μM; Organism, effect (P. aeruginosa): P. aeruginosa (H)
11 | WSRVPGHSDTGWKVWHRW-NH2 [PF-547] | S. epidermidis (R) | G B M |  |  |  |  |  | MRSA (M) |  | Organism, effect (E. faecalis): E. faecalis (R); Target(s) ([3]; peptide binding conducted in aqueous buffers varied by peptide solubility): S. epidermidis and E. coli and P. aeruginosa and C. albicans and MRSA and S. pneumoniae and E. faecalis; MIC (B. subtilis [4]): B. subtilis, 25 μM; MIC (S. mutans [9]): S. mutans, 12.5 μM; Organism, effect (B. subtilis [5]): B. subtilis (I); MIC (T. rubrum): T. rubrum, 25 μM
